Data taken from ChEMBL document CHEMBL4422622, “Identification of Mineralocorticoid Receptor Modulators with Low Impact on Electrolyte Homeostasis but Maintained Organ Protection” (J Med Chem, 2019).
Values after ≈ are worked out from the molar mass of the structure shown.

What was measured:
[1] = Octanol-water partitioning co-efficient, log D of the compound at pH 7.4 by LC/MS/MS analysis; format: physicochemical
[2] = Intrinsic clearance in human hepatocytes assessed per million cells at 1 uM measured up to 120 mins in presence of NADPH by LC-MS/MS analysis; format: ADME, cell-based, Hepatocyte; settings: read-out: CLH
Glucocorticoid receptor = biological target: T1, Glucocorticoid receptor (Homo sapiens, UniProt P04150)
T1 sequence (P04150 whole entry): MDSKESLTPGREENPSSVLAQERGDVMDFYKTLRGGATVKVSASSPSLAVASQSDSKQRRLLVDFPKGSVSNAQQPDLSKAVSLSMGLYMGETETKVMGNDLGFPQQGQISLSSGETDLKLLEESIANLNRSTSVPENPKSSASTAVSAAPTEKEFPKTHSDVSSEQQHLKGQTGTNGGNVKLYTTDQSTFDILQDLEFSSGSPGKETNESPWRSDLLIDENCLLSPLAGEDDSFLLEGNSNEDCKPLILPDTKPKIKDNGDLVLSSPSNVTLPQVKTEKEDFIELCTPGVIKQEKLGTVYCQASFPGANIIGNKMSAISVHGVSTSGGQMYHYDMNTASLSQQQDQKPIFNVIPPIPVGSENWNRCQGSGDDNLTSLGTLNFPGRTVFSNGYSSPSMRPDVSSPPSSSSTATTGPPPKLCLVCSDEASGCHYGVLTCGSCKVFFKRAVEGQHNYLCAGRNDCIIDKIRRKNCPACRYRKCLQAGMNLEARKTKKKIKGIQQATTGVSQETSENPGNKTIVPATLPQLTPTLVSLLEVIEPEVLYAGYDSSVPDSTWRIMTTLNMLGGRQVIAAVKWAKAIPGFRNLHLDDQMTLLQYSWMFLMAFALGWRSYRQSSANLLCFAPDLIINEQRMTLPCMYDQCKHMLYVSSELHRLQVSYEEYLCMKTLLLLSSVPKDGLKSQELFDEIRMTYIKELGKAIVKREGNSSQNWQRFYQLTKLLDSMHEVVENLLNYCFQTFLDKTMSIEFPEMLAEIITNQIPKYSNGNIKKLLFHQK
Description: Binding affinity to recombinant human GR LBD by fluormone GS red-fluorescence polarization assay

[3] = Apparent permeability in human Caco2 cells at 10 uM after 45 to 120 mins by LC/MS/MS analysis; format: ADME, cell-based; settings: Caco-2
[4] = biological target: T2, Mineralocorticoid receptor (Homo sapiens, UniProt P08235)
T2 sequence (P08235 whole entry): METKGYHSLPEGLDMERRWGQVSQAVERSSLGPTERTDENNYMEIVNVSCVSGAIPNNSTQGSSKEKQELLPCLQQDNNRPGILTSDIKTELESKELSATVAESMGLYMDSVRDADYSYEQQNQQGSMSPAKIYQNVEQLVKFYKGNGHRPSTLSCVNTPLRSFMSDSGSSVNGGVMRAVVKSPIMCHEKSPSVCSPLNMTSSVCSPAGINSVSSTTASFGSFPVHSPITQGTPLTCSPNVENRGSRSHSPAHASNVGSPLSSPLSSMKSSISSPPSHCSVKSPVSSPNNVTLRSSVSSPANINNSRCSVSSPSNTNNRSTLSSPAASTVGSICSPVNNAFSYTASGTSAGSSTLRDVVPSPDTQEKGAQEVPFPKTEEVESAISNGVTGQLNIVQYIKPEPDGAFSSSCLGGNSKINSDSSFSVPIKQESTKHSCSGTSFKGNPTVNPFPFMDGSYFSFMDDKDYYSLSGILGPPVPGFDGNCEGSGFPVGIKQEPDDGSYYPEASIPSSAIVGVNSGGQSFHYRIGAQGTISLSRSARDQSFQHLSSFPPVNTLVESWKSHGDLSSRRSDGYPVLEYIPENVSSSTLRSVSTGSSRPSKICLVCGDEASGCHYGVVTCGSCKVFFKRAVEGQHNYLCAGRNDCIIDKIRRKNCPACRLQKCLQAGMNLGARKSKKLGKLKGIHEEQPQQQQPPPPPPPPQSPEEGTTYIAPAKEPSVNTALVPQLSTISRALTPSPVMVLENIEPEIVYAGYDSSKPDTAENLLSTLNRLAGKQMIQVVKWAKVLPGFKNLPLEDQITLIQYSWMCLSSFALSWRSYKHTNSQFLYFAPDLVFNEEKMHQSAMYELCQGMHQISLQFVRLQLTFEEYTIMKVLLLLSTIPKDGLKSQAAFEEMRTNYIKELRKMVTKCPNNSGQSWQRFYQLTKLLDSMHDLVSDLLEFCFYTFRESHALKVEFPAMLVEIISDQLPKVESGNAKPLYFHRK
Description: Displacement of [3H]-aldosterone to human mineralocorticoid receptor LBD by radiometric binding assay

[5] = biological target: T2, Mineralocorticoid receptor; remark: listed apart in the source
Description: Antagonist activity at gal4-fused human mineralocorticoid receptor LBD expressed in UAS-MR-bla HEK293 cells by luciferase reporter gene assay

[6] = Intrinsic clearance in human liver microsomes at 1 uM measured up to 30 mins in presence of NADPH by LC-MS/MS analysis; format: ADME, Microsome; settings: read-out: CLH
[7] = Kinetic solubility of compound at pH 7.4 after 24 hrs by shake-flask assay; format: physicochemical; settings: buffer, read-out: -log(solubility) (converted)

| SMILES | logD [1] | hepatocyte CLint at 1 µM [2] | Ki (Glucocorticoid receptor) | Papp at 10 µM [3] | Ki [4] | IC50 [5] | microsomal CLint at 1 µM [6] | solubility kinetic at 24 h [7] |
| --- | --- | --- | --- | --- | --- | --- | --- | --- |
| C[C@@H]1CN(c2ccc3c(n2)NC(=O)CO3)[C@H](c2ccccc2)CO1 | 2.7 |  |  |  |  |  |  |  |
| O=c1[nH]c2ccc(/C=C3\c4ccccc4COc4cc(F)ccc43)cc2[nH]1 | 4 |  |  |  |  |  |  |  |
| NC(=O)C[C@H]1COc2cc(Cl)ccc2N1C(=O)c1ccc2c(c1)NC(=O)CO2 | 1.7 | 1.5 µL/min/1e6 cells | 31.6 nM | 5.6 ×10⁻⁶ cm/s |  |  |  |  |
| NS(=O)(=O)C[C@H]1COc2cc(F)ccc2N1C(=O)c1ccc2cc[nH]c2c1 | 2.3 | 3.6 µL/min/1e6 cells | 631 nM |  | 50.1 nM | 251 nM |  |  |
| CNC(=O)C[C@H]1COc2ccccc2N1C(=O)c1ccc2c(c1)NC(=O)CO2 | 1.1 | < 1 µL/min/1e6 cells | 3160 nM | 6.8 ×10⁻⁶ cm/s |  |  |  |  |
| N#CC[C@H]1COc2ccccc2N1C(=O)c1ccc2c(c1)NC(=O)CO2 | 1.5 |  |  |  | 501 nM | 3980 nM | 34 µL/min/mg | 794 µM (≈ 277 µg/mL) |
| CNC(=O)C[C@@H]1COc2cc(F)ccc2N1C(=O)c1ccc2c(c1)NC(=O)CO2 | 1.3 | < 1 µL/min/1e6 cells |  | 6.2 ×10⁻⁶ cm/s |  |  |  |  |
| NC(=O)C[C@H]1COCc2cc(F)ccc2N1C(=O)c1ccc2c(c1)NC(=O)CO2 | 0.4 | < 1 µL/min/1e6 cells | > 15800 nM | < 0.6 ×10⁻⁶ cm/s | > 10000 nM | > 10000 nM |  |  |
| O=C1COc2ccc(C(=O)N3CCOc4ccccc43)cc2N1 | 2 |  |  |  | 1000 nM | 3160 nM | 4 µL/min/mg | 15.8 µM (≈ 4.92 µg/mL) |
| CNC(=O)C[C@H]1COc2cc(Cl)cc(C)c2N1C(=O)c1ccc2c(c1)NC(=O)CO2 | 1.2 | 2.5 µL/min/1e6 cells | > 12600 nM | 7.8 ×10⁻⁶ cm/s | 398 nM | 2000 nM |  |  |
| NC(=O)C[C@H]1COc2cc(F)ccc2N1C(=O)c1ccc2c(c1)NC(=O)CO2 | 1.1 | < 1 µL/min/1e6 cells | 631 nM | 3 ×10⁻⁶ cm/s |  |  |  |  |
| CNC(=O)C[C@H]1COc2cc(C#N)ccc2N1C(=O)c1ccc2c(c1)NC(=O)CO2 | 0.9 | < 1 µL/min/1e6 cells | > 12600 nM | 1.5 ×10⁻⁶ cm/s | 1000 nM | 6310 nM |  |  |
| C[C@@H]1CCc2cc(F)ccc2N1C(=O)c1ccc2c(c1)NC(=O)CO2 | 2.9 |  |  |  | 6310 nM | > 10000 nM | 70 µL/min/mg | 100 µM (≈ 34 µg/mL) |
| COC(=O)C[C@H]1COc2cc(F)ccc2N1C(=O)c1ccc2c(c1)NC(=O)CO2 | 2.2 |  |  |  | 63.1 nM | 316 nM | > 300 µL/min/mg | 398 µM (≈ 159 µg/mL) |
| CNC(=O)C[C@H]1COc2cc(Br)ccc2N1C(=O)c1ccc2c(c1)NC(=O)CO2 | 2.2 | 5 µL/min/1e6 cells | 126 nM | 23 ×10⁻⁶ cm/s |  |  |  |  |
| N=C(c1ccc2c(c1)NC(=O)CO2)[C@@H](Sc1nnc[nH]1)c1ccccc1 | 2.4 |  |  |  | 501 nM |  |  |  |
| CNC(=O)C[C@H]1COc2cc(F)ccc2N1C(=O)c1ccc2c(c1)NC(=O)OC2 | 0.9 | < 1 µL/min/1e6 cells | > 15800 nM |  | > 6310 nM | > 10000 nM |  |  |
| CNC(=O)C[C@H]1CCc2cc(F)ccc2N1C(=O)c1ccc2c(c1)NC(=O)CO2 | 1.4 | < 1.8 µL/min/1e6 cells | 6310 nM | 6.3 ×10⁻⁶ cm/s | 316 nM | 2000 nM |  |  |
| Cc1ccc(C2CCCCN2S(=O)(=O)c2ccc3c(c2)NC(=O)CO3)cc1 (racemic) | 3.3 |  |  |  |  | 6310 nM | 120 µL/min/mg | < 0.794 µM |
| CCNC(=O)CC1COc2cc(F)ccc2N1C(=O)c1ccc2c(c1)NC(=O)CO2 (racemic) | 1.6 | 3 µL/min/1e6 cells | > 15800 nM | 10 ×10⁻⁶ cm/s | > 10000 nM | > 10000 nM |  |  |

More lines, now with the values ahead:

| logD [1] | hepatocyte CLint at 1 µM [2] | Ki (Glucocorticoid receptor) | Papp at 10 µM [3] | Ki [4] | IC50 [5] | microsomal CLint at 1 µM [6] | solubility kinetic at 24 h [7] | SMILES |
| --- | --- | --- | --- | --- | --- | --- | --- | --- |
| 1.8 | < 2 µL/min/1e6 cells | 79.4 nM |  | 10 nM | 200 nM |  |  | CNC(=O)C[C@H]1COc2cc(F)c(OC(C)C)cc2N1C(=O)c1ccc2c(c1)NC(=O)CO2 |
| > 4.4 | 26 µL/min/1e6 cells | 200 nM |  | 10 nM | 251 nM |  |  | O=C1COc2ccc(C(=O)N3c4cc(CC5CCCCC5)c(F)cc4OC[C@@H]3CCO)cc2N1 |
| 2.4 | 3 µL/min/1e6 cells | 398 nM | 19 ×10⁻⁶ cm/s | 12.6 nM | 79.4 nM |  |  | CNC(=O)C[C@H]1COc2cc(C(F)(F)F)ccc2N1C(=O)c1ccc2c(c1)NC(=O)CO2 |
| 2.2 | 6.1 µL/min/1e6 cells | 126 nM |  | 7.94 nM | 100 nM |  |  | CNC(=O)C[C@H]1COc2cc(F)c(CC(C)C)cc2N1C(=O)c1ccnc(NC(N)=O)c1 |
| 2.8 | 18 µL/min/1e6 cells | 1.58 nM |  | < 0.316 nM | 0.794 nM |  |  | CC(C)Cc1cc2c(cc1F)OC[C@H](CS(N)(=O)=O)N2C(=O)c1ccc2c(c1)NC(=O)CO2 |
| 3.3 | 11 µL/min/1e6 cells | 1.26 nM |  | 0.501 nM | 2.51 nM |  |  | CC(C)Cc1cc2c(cc1Cl)OC[C@H](CC(N)=O)N2C(=O)c1ccc2c(c1)NC(=O)CO2 |
| 1.6 | 2.8 µL/min/1e6 cells | 316 nM | 14 ×10⁻⁶ cm/s | 3.98 nM | 100 nM |  |  | CNC(=O)C[C@H]1COc2cc(C)ccc2N1C(=O)c1ccc2c(c1)NC(=O)CO2 |
| 1.5 | < 1 µL/min/1e6 cells | 316 nM | < 0.81 ×10⁻⁶ cm/s | 7.94 nM | 126 nM |  |  | NC(=O)C[C@H]1CNc2cc(Cl)ccc2N1C(=O)c1ccc2c(c1)NC(=O)CO2 |
| 3.1 | 13 µL/min/1e6 cells | 7.94 nM |  | 0.631 nM | 20 nM |  |  | CNC(=O)C[C@H]1COc2cc(F)c(CC(C)C)cc2N1C(=O)c1ccc2c(c1)NC(=O)CO2 |
| 1.8 | 60 µL/min/1e6 cells | 1000 nM | 38 ×10⁻⁶ cm/s | 15.8 nM | 63.1 nM |  |  | Cc1ccc2c(c1)OC[C@](C)(CS(C)(=O)=O)N2C(=O)c1ccc2c(c1)NC(=O)CO2 |
| 1.3 | < 1 µL/min/1e6 cells | 1260 nM |  | 39.8 nM | 200 nM |  |  | NS(=O)(=O)C[C@H]1COc2cc(F)ccc2N1C(=O)c1ccc2c(c1)NCCO2 |
| 1.4 | 8 µL/min/1e6 cells | 20 nM | 10 ×10⁻⁶ cm/s | 0.316 nM | 2.51 nM |  |  | CS(=O)(=O)C[C@H]1COc2cc(F)ccc2N1C(=O)c1ccc2c(c1)NC(=O)CO2 |
| 2 | < 2 µL/min/1e6 cells | 2.51 nM |  | 3.16 nM | 79.4 nM |  |  | NC(=O)C[C@H]1COc2cc(F)c(C3CC3)cc2N1C(=O)c1ccc2c(c1)NC(=O)CO2 |
